From patent US11243205B2, “Method of diagnosis of breast cancer” (LA TROBE UNIVERSITY, priority 2015, dated 2022)

Key:
4T1.2-luc2 cells = experiment: poly(I:C) treatment of mice bearing 4T1.2-luc2 mammary fat pad tumours, metastasis by bioluminescence and QPCR; type: in vivo, balb/c mice; details: 25 ug poly(I:C) 3x weekly IV from day 4; primary tumour resected at 0.4 g; bioluminescence and QPCR of luciferase vs vimentin; *p<0.05, **p<0.01
Description: From day 4, mice were treated with 25 ug poly(I:C) or control 3× weekly IV. After primary tumour resection at 0.4 g, mice were monitored for metastasis by bioluminescence (A) and by QPCR analysis of luciferase expression compared to vimentin at end point (B). *p<0.05, **p<0.01.
Expression of Irf9 is knocked out in balb/c (66c14, 4T1) and C57 B1/6 (EO771, PyMT) mouse cell lines and the impact on tumour cell proliferation and orthotopic tumour growth and metastasis in vivo, is required. Associated changes in tumour infiltating and circulating immune cells, impact on tumour cell susceptibility to immune effector cells in vitro and the impact of NK cell specific loss of IFN signalling is measured. • a) Using TALEN technology (Boch J. TALEs of genome targeting. Nature biotechnology. 2011; 29(2):135-6) an Irf9 knockout 4T1 cell line has been generated (FIG. 5). This is repeated in 66c14, EO771 and PyMT cell lines. Given that Irf7 is induced by the ISGF3 complex of STAT1/2 and Irf9, Irf9 loss will likely directly result in reduction of Irf7. Irf7 we can also be knocked out directly in these cells. • The impact of Irf9 loss is measured on cellular proliferation using the SRB assay. […] The activation and function of NK cells is measured by measuring the expression of NKG2D, DNAM-1 and IFNγ on NKp46^+ NK cells. […]

4T1.2-Luc2 = experiment: neo-adjuvant poly(I:C) therapy, primary tumour growth and survival; type: in vivo, Balb/c mice
Description: Female 8-week-old Balb/c mice were administered poly(I:C) (25 μg, I.V., thrice weekly) and/or doxorubicin (4 mg/kg, twice weekly) beginning 2 days post tumour cell inoculation (100,000 4T1.2-Luc2 IMFP). Differences in primary tumour growth were detectable 6 days after tumour cell inoculation using bioluminescent imaging (of four mice representative of the larger cohort) (A). Therapy was ceased and primary tumours were surgically removed and weighed 12 days post tumour cell injection (B). n=10 mice per group, error bars represent the 95% CI, *p<0.05, **p<0.01, ***p<0.001 using Student's t-tests.
Mice used in FIG. 2 continued to undergo weekly bioluminescent imaging to visualise the kinetics of metastatic spread. (A) Images taken 19 and 23 days post tumour cell inoculation are of the same four mice in identical order and representative of the larger cohort. (B) Mice were individually sacrificed at first signs of metastatic distress and dates recorded to generate Kaplan-Meier survival estimates. […]
Tumour-bearing mice are treated with poly(I:C), a stable derivative of poly(I:C):poly ICLC that is currently in clinical trials (Hiltonol™, Oncovir) or recombinant IFNα1 in early and late treatment settings and the impact of such treatments on immune activation and function, primary tumour growth and metastasis is measured. […]

PD-L1 = experiment: FACS analysis for PD-L1 cell surface expression after interferon treatment; type: cell-based; details: IFNα 1000 IU/ml, 48 hours, **p<0.01
Description: A loss of IRF9 causes PD-L1 expression to be increased after IFNα stimulation. FACS analysis for PD-L1 cell surface expression using PE tagged anti-PD-L1, MIH5 (1:50). Cells were treated with IFNα (1000 IU/ml) or IFNγ (10 ng/ml) for 48 hours prior to FACS. Data is represented as normalised mean fluorescence intensity (MFI). Error bars represent SEM, n=3. Statistical significance values equal: **p<0.01.

Substance | metastasis to lung and bone (4T1.2-luc2 cells) | survival (Kaplan-Meier) (4T1.2-Luc2; neo-adjuvant therapy ceased day 12, mice sacrificed at first signs of metastatic distress, ***p<0.001) | primary tumour growth (4T1.2-Luc2; poly(I:C) 25 μg I.V. thrice weekly from 2 days post inoculation, bioluminescence day 6, tumour weight day 12) | PD-L1 expression in cells with loss of IRF9 (PD-L1)
poly(I:C) | reduces metastasis to lung and bone | prolongs survival | reduces primary tumour growth | –
IFNα | – | – | – | increased
